Results reported in US20130310625A1, “VELIPARIB IN COMBINATION WITH WHOLE BRAIN RADIATION THERAPY FOR THE TREATMENT OF BRAIN METASTASES” (AbbVie Inc., priority 2012, published 2013).
“Also recorded” adds a separate entry of the source. One block for each molecule: values may come before it.

Tests used:
brain metastases = conditions: radio-sensitizer added to WBRT, randomized controlled studies; cited from earlier work
[1] = preclinical study; cited from earlier work
[2] = Phase 1 pharmacokinetics of veliparib administered concurrently with WBRT in patients with brain metastases; format: in vivo, human
Method: (§1) This example is a Phase 1, multicenter, dose-escalation study evaluating the safety, tolerability and pharmacokinetics of veliparib administered concurrently with conventional WBRT in subjects with solid primary tumors metastatic to the brain.
(§2) Patients received WBRT delivered in 2.5 Gy fractions once a day (QD) for a total of 15 fractions or WBRT delivered at 3.0 Gy fractions QD for a total of 10 fractions.
(§3) Veliparib dose-escalation began at 10 mg and increased to 20, 30, 50, 80, 100, 150, 200, and 300 mg twice a day (BID) through out the entire course of WBRT (Table 2); the final WBRT fraction was followed by 1 extra day of veliparib.
To determine PK of veliparib, intensive PK sampling was performed on Day 1 of the WBRT schedules (15 and 10 day) at the following time points: 0, 30, 1, 2, 6 and 24 hours. PK as was also performed on Day 6 for both WBRT schedules at the following time points: 0, 30 min, 1, 2, and 6 For the 15 Day schedule sampling was performed on Day 15 at 0, 30 min, 1, 2 and 6 hours. For the 10 day schedule only a 0 hour sample was collected. Post treatment samples were collected 24-72 hours after the last dose of veliparib for both WBRT schedules.

[3] = nonhuman primate model (Muscal et al. 2010); cited from earlier work
[4] = Phase 1 safety and tolerability of veliparib with WBRT (AEs by NCI CTCAE v3.0, DLTs); format: in vivo, human
Method: as §1, §2, §3
AEs were assessed by NCI CTCAE v3.0.

[5] = N = 66, possibly or probably related to veliparib

Structure (SMILES): O=C(O)c1nn(Cc2ccc(Cl)cc2Cl)c2ccccc12 [lonidamine]
benefit in local brain tumor control or overall survival (brain metastases): failing to benefit

Structure (SMILES): CC(=O)[O-].CC(=O)[O-].CCc1c(CC)c2cc3nc(cnc4cc(OCCOCCOCCOC)c(OCCOCCOCCOC)cc4ncc4nc(cc1[n-]2)C(CCCO)=C4C)C(C)=C3CCCO.O.[Gd+3] [motexafin gadolinium]
benefit in local brain tumor control or overall survival (brain metastases): failing to benefit

Increase in veliparib exposure (Cmax and AUC) with increase in veliparib dose ([2]; 10 to 150 mg BID dose range): approximately dose-proportional
veliparib accumulation following BID dosing ([2]; Cmax and AUC on Day 1, Day 6 and Day 15): minimal
effect of food on veliparib oral bioavailability ([2]; exposure Day 6 (fasting) vs Day 15 (non-fasting)): no significant effect of food
Tmax ([2]; human, plasma, oral veliparib BID with WBRT, patients): 1 to 2 h
oral clearance ([2]; mean±SD, n=45, 10 to 150 mg BID dose range): 21.6 ± 14.2 L/h
Structure (SMILES): C[C@]1(c2nc3c(C(N)=O)cccc3[nH]2)CCCN1 [Veliparib, 2-[(2R)-2-methylpyrrolidin-2-yl]-1H-benzimidazole-4-carboxamide]
blood-brain barrier crossing and accumulation in brain tumor tissue [1]: shown to cross the blood-brain barrier and accumulate in brain tumor tissue
level in CSF [3]: measured in CSF in a range that has been shown to inhibitor PARP activity in vivo in humans
DLT ([4]; 150 mg veliparib BID, one patient each): grade 3 hypokalemia; also recorded: grade 3 hyponatraemia
dose limiting toxicities (DLTs) ([4]; 10, 20, 30, 50, 80, 100, 200 and 300 mg dose levels): No dose limiting toxicities (DLTs) were observed
Any Event, Any Grade, treatment-emergent AEs possibly or probably related to veliparib ([4]; N = 66): 37 (56) n (%)
Any Event, Grade 3/4 AEs possibly or probably related to veliparib ([4]; N = 66): 10 (15) n (%)
Decreased Appetite, Any Grade [4, 5]: 8 (12) n (%)
Fatigue, Any Grade [4, 5]: 22 (33.3) n (%)
Fatigue, Grade 3/4 [4, 5]: 3 (5) n (%)
Nausea, Any Grade [4, 5]: 13 (19.7) n (%)
Nausea, Grade 3/4 [4, 5]: 1 (2) n (%)
Vomiting, Any Grade [4, 5]: 8 (12) n (%)
patients with AEs leading to study drug discontinuation ([4]; all causes): 8 (12%) patients
patients with AEs leading to study drug discontinuation possibly or probably related to veliparib ([4]; in vivo): 2 (3%) patients

Structure (SMILES): Cc1ncc([N+](=O)[O-])n1CCO [metronidazole]
benefit in local brain tumor control or overall survival (brain metastases): failing to benefit

Structure (SMILES): Cc1cc(C)cc(NC(=O)Cc2ccc(OC(C)(C)C(=O)O)cc2)c1 [efaproxiral]
benefit in local brain tumor control or overall survival (brain metastases): failing to benefit

Structure (SMILES): O=c1[nH]c(=O)n([C@H]2C[C@H](O)[C@@H](CO)O2)cc1Br [bromodeoxyuridine]
benefit in local brain tumor control or overall survival (brain metastases): failing to benefit

Structure (SMILES): COCC(O)Cn1ccnc1[N+](=O)[O-] (stereo not shown) [misonidazole]
benefit in local brain tumor control or overall survival (brain metastases): failing to benefit
